Data on 23 molecules can be found in US9988400B2 (Genentech, Inc., priority 2013, dated 2018).

The target in the assay is T1, HEK cells stably transfected with tetracycline inducible hNR1 and hNR2A (Homo sapiens, UniProt Q05586+Q12879).
T1 construct: expressed in transfected cells; host or cells: HEK cells, stably transfected, tetracycline/doxycycline inducible
Kind of assay: Assay 1: Cell-Based Assay, cytosolic calcium response to positive allosteric modulators (with 30 μM glycine and 300 nM L-glutamate, EC30). Particulars: for EC50: cytosolic calcium response, with 30 μM glycine and 300 nM L-glutamate (EC30), — = no plateau was reached; for Max %: responses scaled relative to 100 μM L-glutamate maximal response (100%) and 0 μM L-glutamate (0%). The gist of the method:
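Cells induced 24 h with 7.5 μg mL^−1 doxycycline plus 500 μM (+)-ketamine, loaded 60 min at 37 °C with calcium dye in Mg-free HBSS (1.8 mM Ca, probenecid, 10 μM (+)-ketamine, pH 7.15). Peak RFU over 5 min after compound addition, scaled to 100 μM L-glutamate (100%) and 0 μM (0%); four-parameter Hill fit for EC50, max % if no plateau.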

T1 sequence (Q12879 23-1464, other chains not shown): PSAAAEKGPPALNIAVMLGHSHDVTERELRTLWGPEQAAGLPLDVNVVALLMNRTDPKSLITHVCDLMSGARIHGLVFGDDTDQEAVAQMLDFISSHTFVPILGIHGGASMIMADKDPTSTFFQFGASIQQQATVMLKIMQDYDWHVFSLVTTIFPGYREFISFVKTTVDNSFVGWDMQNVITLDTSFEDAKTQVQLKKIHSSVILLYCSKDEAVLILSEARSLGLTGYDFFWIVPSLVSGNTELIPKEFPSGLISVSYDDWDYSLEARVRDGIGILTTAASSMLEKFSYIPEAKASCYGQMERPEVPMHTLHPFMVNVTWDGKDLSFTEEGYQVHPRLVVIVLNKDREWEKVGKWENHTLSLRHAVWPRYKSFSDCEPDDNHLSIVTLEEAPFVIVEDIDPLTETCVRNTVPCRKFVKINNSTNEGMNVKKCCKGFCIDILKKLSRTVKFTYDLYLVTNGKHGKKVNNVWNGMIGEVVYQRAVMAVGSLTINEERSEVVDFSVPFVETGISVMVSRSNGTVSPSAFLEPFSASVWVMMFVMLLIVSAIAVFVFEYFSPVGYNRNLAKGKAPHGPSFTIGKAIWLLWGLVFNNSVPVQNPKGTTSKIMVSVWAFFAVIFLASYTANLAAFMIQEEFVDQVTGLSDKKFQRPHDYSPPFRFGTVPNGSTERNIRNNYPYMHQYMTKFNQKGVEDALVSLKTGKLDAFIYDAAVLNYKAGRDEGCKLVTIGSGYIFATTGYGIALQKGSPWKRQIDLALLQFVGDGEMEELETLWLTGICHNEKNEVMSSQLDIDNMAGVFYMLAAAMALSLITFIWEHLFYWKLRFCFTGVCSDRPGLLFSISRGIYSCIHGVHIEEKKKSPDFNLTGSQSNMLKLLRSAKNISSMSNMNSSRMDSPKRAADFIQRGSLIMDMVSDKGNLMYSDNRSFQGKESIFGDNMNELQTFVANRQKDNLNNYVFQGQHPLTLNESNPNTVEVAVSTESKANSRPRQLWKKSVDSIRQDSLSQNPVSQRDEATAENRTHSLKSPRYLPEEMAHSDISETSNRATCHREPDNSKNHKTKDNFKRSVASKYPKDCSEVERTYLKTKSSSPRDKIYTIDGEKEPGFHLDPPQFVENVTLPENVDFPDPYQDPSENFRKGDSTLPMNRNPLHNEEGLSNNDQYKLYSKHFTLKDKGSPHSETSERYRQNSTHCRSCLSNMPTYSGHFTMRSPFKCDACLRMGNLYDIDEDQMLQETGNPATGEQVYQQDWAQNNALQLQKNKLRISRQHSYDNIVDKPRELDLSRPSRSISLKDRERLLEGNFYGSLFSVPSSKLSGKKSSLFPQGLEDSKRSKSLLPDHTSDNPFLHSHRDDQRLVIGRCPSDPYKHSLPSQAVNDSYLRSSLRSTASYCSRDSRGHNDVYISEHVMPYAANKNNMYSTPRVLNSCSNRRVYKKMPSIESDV

As for `Cc1sc2nc(Cn3nc(C(F)(F)F)cc3Cl)cc(=O)n2c1CC#N` [compound 229, 2-[7-[[5-chloro-3-(trifluoromethyl)pyrazol-1-yl]methyl]-2-methyl-5-oxo-thiazolo[3,2-a]pyrimidin-3-yl]acetonitrile], under “Table 3”, the EC50 – broadly, the concentration giving half of the maximal effect – stood at 6460 nM.

On to `CCN(Cc1cc(=O)n2c(CCCOC)c(C)sc2n1)c1ccc(F)cc1` [Example 13.2, 7-((Ethyl(4-fluorophenyl)amino)methyl)-3-(3-methoxypropyl)-2-methyl-5H-thiazolo[3,2-a]pyrimidin-5-one], for which, under “Table 2”, the EC50 is 913 nM and the Max % worked out at 130%.

As to `CCN(Cc1cc(=O)n2c(-c3cncnc3)c(C)sc2n1)c1ccc(F)c(F)c1` [Example 5.4, 7-(((3,4-difluorophenyl)(ethyl)amino)methyl)-2-methyl-3-(pyrimidin-5-yl)-5H-thiazolo[3,2-a]pyrimidin-5-one], under “Table 2”, the EC50 came out at 956 nM and the Max % is on record as 172%.

As for `Cc1sc2nc(Cc3cccc(C#N)c3F)cc(=O)n2c1-c1ccco1` [Example 24.8, 2-fluoro-3-((3-(furan-2-yl)-2-methyl-5-oxo-5H-thiazolo[3,2-a]pyrimidin-7-yl)methyl)benzonitrile], the EC50 (Table 2) is 8900 nM.

On to `Cc1cc(C2CC2)n(Cc2cc(=O)n3c([C@@H]4C[C@H]4CO)c(C)sc3n2)n1` (single isomer, unassigned) [Example 15.13, 7-[(5-cyclopropyl-3-methyl-pyrazol-1-yl)methyl]-3-[2-(hydroxymethyl)cyclopropyl]-2-methyl-thiazolo[3,2-a]pyrimidin-5-one], for which the Max % (Table 2) worked out at 67.6%.

As for `CCN(Cc1cc(=O)n2c(-c3cccnc3F)c(C)sc2n1)c1ccc(F)cc1` [Example 5.25, 7-[(N-ethyl-4-fluoro-anilino)methyl]-3-(2-fluoro-3-pyridyl)-2-methyl-thiazolo[3,2-a]pyrimidin-5-one], where the note is “Table 2”, the EC50 was 700 nM and the Max % stood at 141%.

With `CCNC(=O)c1c(C)sc2nc(Cc3cc(C#N)ccc3C)cc(=O)n12` [Example 21.30, 7-(5-cyano-2-methylbenzyl)-N-ethyl-2-methyl-5-oxo-5H-thiazolo[3,2-a]pyrimidine-3-carboxamide], the Max % (Table 2) is on record as 100%.

As for `CCN(Cc1cc(=O)n2c(C(O)CO)c(C)sc2n1)c1ccc(F)cc1` (centres unmarked) [Example 12.5, 3-(1,2-dihydroxyethyl)-7-[(N-ethyl-4-fluoro-anilino)methyl]-2-methyl-thiazolo[3,2-a]pyrimidin-5-one], under “Table 2”, the EC50 is 974 nM and the Max % came to 153%.

With `Cc1sc2nc(Cc3cc(C(F)(F)F)ccc3Cl)cc(=O)n2c1C1CC1C#N` (centres unmarked) [compound 187, 2-[7-[[2-chloro-5-(trifluoromethyl)phenyl]methyl]-2-methyl-5-oxo-thiazolo[3,2-a]pyrimidin-3-yl]cyclopropanecarbonitrile], the half-maximal effective concentration (EC50) (Table 3) amounted to 11100 nM.

Regarding `Cc1sc2nc(Cc3cccc(C#N)c3F)cc(=O)n2c1N1CCC1` [compound 113, 3-[[3-(azetidin-1-yl)-2-methyl-5-oxo-thiazolo[3,2-a]pyrimidin-7-yl]methyl]-2-fluoro-benzonitrile], the EC50 (Table 3) came out at 2370 nM.

As for `CCNC(=O)c1c(C)sc2nc(Cc3ccc(F)c(C#N)c3)cc(=O)n12` [Example 21.37, 7-(3-cyano-4-fluorobenzyl)-N-ethyl-2-methyl-5-oxo-5H-thiazolo[3,2-a]pyrimidine-3-carboxamide], the Max % (Table 2) was 68.4%.

As to `Cc1sc2nc(COc3ccc(F)cc3)cc(=O)n2c1C1CC1C#N` (single isomer, unassigned) [Example 4.20, cis-2-[7-(4-Fluorophenoxymethyl)-2-methyl-5-oxo-5H-[1,3]thiazolo[3,2-a]pyrimidin-3-yl]cyclopropane-1-carbonitrile], under “Table 2”, the EC50 turned out to be 2400 nM and the Max % is listed as 93.9%.

Regarding `CNC(=O)c1c(C)sc2nc(Cc3cc(F)c(F)cc3OC)cc(=O)n12` [compound 9, 7-[(4,5-difluoro-2-methoxy-phenyl)methyl]-N,2-dimethyl-5-oxo-thiazolo[3,2-a]pyrimidine-3-carboxamide], the concentration giving a half-maximal response (EC50) (Table 3) stood at 8040 nM.

Take `Cc1sc2nc(COc3ccc(F)cc3)cc(=O)n2c1C1CC1C#N` (racemic) [Example 4.18, cis-2-[7-(4-Fluorophenoxymethyl)-2-methyl-5-oxo-5H-[1,3]thiazolo[3,2-a]pyrimidin-3-yl]cyclopropane-1-carbonitrile]: for the setting “Table 2”, the EC50 came to 5000 nM and the Max % is given as 102%.

With `CCN(Cc1cc(=O)n2c(-c3ncco3)c(C)sc2n1)c1ccc(F)cc1` [Example 5.37, 7-[(N-ethyl-4-fluoro-anilino)methyl]-2-methyl-3-oxazol-2-yl-thiazolo[3,2-a]pyrimidin-5-one], where the note is “Table 2”, the EC50 was found to be 515 nM and the Max % is recorded as 152%.

Regarding `CC(C)c1sc2nc(Cn3nc(C(F)(F)F)cc3C3CC3)cc(=O)n2c1C1CC1CO` (centres unmarked) [Example 15.24, 7-[[5-cyclopropyl-3-(trifluoromethyl)pyrazol-1-yl]methyl]-3[2-(hydroxymethyl)cyclopropyl]-2-isopropyl-thiazolo[3,2-a]pyrimidin-5-one], for the setting “Table 2”, the EC50 came to 1400 nM and the Max % is reported as 138%.

For the molecule `Cc1sc2nc(Cn3nc(C(F)(F)F)cc3Cl)cc(=O)n2c1C(=O)C(C)C` [compound 177, 7-[[5-chloro-3-(trifluoromethyl)pyrazol-1-yl]methyl]-2-methyl-3-(2-methylpropanoyl)thiazolo[3,2-a]pyrimidin-5-one], for the setting “Table 3”, the EC50 came out at 123 nM.

Regarding `CCN(Cc1cc(=O)n2c3c(sc2n1)CCN(C)C3)c1ccc(F)cc1` [Example 8.10, 2-[(N-ethyl-4-fluoro-anilino)methyl]-7-methyl-8,9-dihydro-6H-pyrido[3,4]thiazolo[1,4-a]pyrimidin-4-one], for the setting “Table 2”, the EC50 turned out to be 12500 nM and the Max % worked out at 127%.

As to `CCN(Cc1cc(=O)n2c(C(C)C)c(C)sc2n1)c1ccc(F)cc1` [Example 9.2, 7-[(N-ethyl-4-fluoro-anilino)methyl]-3-isopropyl-2-methyl-thiazolo[3,2-a]pyrimidin-5-one], where the note is “Table 2”, the EC50 was 2900 nM and the Max % amounted to 117%.

With `CNC(=O)c1c(C)sc2nc(Cc3cccc(C4CC4)c3F)c(F)c(=O)n12` [compound 6, 7-[(3-cyclopropyl-2-fluoro-phenyl)methyl]-6-fluoro-N,2-dimethyl-5-oxo-thiazolo[3,2-a]pyrimidine-3-carboxamide], the EC50 (Table 3) turned out to be 753 nM.

With `Cc1sc2nc(COc3ccc(F)cc3)cc(=O)n2c1[C@@H]1C[C@H]1C#N` (single isomer, unassigned) [Example 4.21, trans-2-[7-(4-Fluorophenoxymethyl)-2-methyl-5-oxo-5H-[1,3]thiazolo[3,2-a]pyrimidin-3-yl]cyclopropane-1-carbonitrile], under “Table 2”, the EC50 came out at 16300 nM and the Max % came out at 47.4%.

For `CNC(=O)c1c(C)sc2nc(Cc3cc(C(F)(F)F)ccc3C3CC3)cc(=O)n12` [Example 21.17, 7-[[2-cyclopropyl-5-(trifluoromethyl)phenyl]methyl]-N,2-dimethyl-5-oxo-thiazolo[3,2-a]pyrimidine-3-carboxamide], where the note is “Table 2”, the EC50 was 23700 nM and the Max % was found to be 107%.

Take `Cc1sc2nc(COc3ccc(F)cc3)cc(=O)n2c1C(=O)NC(C)CO` (centres unmarked) [Example 1.12, 7-(4-Fluorophenoxymethyl)-N-(1-hydroxypropan-2-yl)-2-methyl-5-oxo-5H-[1,3]thiazolo[3,2-a]pyrimidine-3-carboxamide]: the Max % (Table 2) amounted to 45.5%.
